Laboratory results: US10752591B2, “18-20 member bi-polycyclic compounds” (Haro Pharmaceutical Inc., priority 2014, dated 2020)

Key:
[1] = test system: RXR; experiment: RXR-mediated transcription, RXRE luciferase reporter in MCF7 cells; type: cell-based
From the text: The effect of various compounds of the invention on RAR-mediated transcription in MCF7 breast cancer cells was examined by measuring their effect on the transcription of a luciferase reporter gene under the control of a TK promoter placed downstream of a RAR response element. In addition, the effect of the compounds on the closely related RXR-mediated transcription was examined by measuring their effect on the transcription of a luciferase reporter gene under the control of a TK promoter placed downstream of a RXR response element.
Typically, 10,000 cells were plated in 96 wells plates in phenol red-free RPMI medium supplemented with 10% charcoal-stripped Fetal Bovine Serum. After 24 hours, cells were transfected with 0.1 μg of luciferase reporter plasmid and 0.01 μg of a reporter plasmid expressing renilla luciferase (RLuc) gene under the control of a SV40 promoter, using Fugene 6 transfection reagent (0.5 μl/well Promega Corporation). Cells were treated in triplicate with compounds or vehicle (DMSO) for 24 hours. Luciferase and renilla luciferase activities were measured using Dual-Glo reagent (Promega Corporation). Luciferase activity was normalized in each well for renilla activity.

[2] = target: T1, purified recombinant human HDAC-6 (Homo sapiens, UniProt Q9UBN7); experiment: HDAC-6 enzymatic inhibition (AMC fluorogenic peptide deacetylation); type: biochemical; conditions: relative to compound 17
T1 construct: purchased Cayman Chem 10009465
T1 sequence (Q9UBN7 1-1215): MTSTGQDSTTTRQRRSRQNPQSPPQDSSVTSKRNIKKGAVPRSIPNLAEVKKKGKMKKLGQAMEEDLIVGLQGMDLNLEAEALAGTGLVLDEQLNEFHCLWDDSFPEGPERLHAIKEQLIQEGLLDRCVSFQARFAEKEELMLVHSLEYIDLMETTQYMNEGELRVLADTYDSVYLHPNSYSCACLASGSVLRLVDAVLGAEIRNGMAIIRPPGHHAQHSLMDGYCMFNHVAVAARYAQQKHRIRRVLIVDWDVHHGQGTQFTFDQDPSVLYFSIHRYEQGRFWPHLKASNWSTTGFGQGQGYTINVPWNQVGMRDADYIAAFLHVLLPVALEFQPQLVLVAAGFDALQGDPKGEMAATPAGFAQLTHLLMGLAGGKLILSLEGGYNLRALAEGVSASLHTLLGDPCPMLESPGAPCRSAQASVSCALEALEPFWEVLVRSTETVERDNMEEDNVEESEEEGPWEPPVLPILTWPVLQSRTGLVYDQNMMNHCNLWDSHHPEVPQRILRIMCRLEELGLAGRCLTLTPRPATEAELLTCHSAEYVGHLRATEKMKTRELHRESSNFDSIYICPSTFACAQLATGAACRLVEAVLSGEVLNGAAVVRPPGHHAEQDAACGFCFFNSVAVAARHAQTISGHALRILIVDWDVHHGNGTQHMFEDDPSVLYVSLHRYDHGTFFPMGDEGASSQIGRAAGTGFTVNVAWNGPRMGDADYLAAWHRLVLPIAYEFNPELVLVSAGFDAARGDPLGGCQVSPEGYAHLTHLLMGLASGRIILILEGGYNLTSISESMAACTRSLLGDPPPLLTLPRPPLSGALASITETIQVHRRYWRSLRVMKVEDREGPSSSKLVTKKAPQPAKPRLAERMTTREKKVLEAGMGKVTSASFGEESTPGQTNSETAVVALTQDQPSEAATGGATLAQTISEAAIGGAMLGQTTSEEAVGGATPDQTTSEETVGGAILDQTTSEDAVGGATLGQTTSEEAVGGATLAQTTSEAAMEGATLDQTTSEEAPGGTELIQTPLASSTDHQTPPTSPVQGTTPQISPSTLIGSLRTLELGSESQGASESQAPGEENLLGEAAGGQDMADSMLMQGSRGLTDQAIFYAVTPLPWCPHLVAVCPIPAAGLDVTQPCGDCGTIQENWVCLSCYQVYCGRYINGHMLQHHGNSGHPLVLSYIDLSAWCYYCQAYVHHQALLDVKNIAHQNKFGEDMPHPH
Experimental: The effect of compounds on the enzymatic activity of purified recombinant human HDAC-1, -2, -3, -6, and -8 activity and of purified rat liver HDAC was examined by measuring the deacetylation of synthetic peptides in various preparations of HDACs. HDAC assays were performed using a two-step enzymatic reaction where enzyme activity is correlated to the release of […] (AMC). AMC fluorescence is measured in a fluorescent plate reading using λex380 nm and λen440 nm.
The reaction was allowed to proceed for 40 min at 37° C., after which developer solution (0.5% trypsin, 10 μM trichostatin A (TSA)) was added to obtain a final concentration of 0.1% trypsin, 2 μM TSA. After 30 minutes at room temperature, the amount of free fluorogenic AMC was measured as described above.

[3] = test system: C2Cl2 cells; experiment: myoblast fusion in long term C2Cl2 cultures (MHC immunocytochemistry); type: cell-based; conditions: long-term culture, suboptimal RPMI media with 2% horse serum
Experimental: The effect of compounds on myoblast fusion was examined in C2Cl2 cells maintained in RPMI media supplemented with 2% horse serum. C2Cl2 myoblastic cells where purchased from the American Type Culture Collection (ATCC) and maintained undifferentiated in RPMI media (Corning) supplemented with 2 mM L-Alanine-L-Glutamine (ATCC) and 1 mM pyruvate (Corning). Undifferentiated cells where maintained below 70% confluence. For long term cultures and compound treatment, cells where plated at high density CellBIND Culture Dishes (corning 3294, 3296, 3337) and in RPMI supplemented with 2% Horse Serum (Gibco) and 2 mM L-Alanine-L-Glutamine (ATCC) and 1 mM pyruvate (Corning). Compounds were dissolved in DMSO at 1000 time the final concentration and diluted 1-in-1000 in the media covering the cells. Media and compounds were changed daily. For immunocytochemistry, cells were fixed in 2% PFA in HBSS for 10 minutes and left in HBSS at 4° under humidified atmosphere and processed for immunocytochemistry. For myosin heavy chain detection (MHC), cells were first incubated in 100 ul-1 ml 0.15 M Glycine in DPBS for 10 minutes, rinse with DPBS. 100 ul-1 ml 0.5% Triton-X in DPBS was added for 10 minutes, rinsed with DPBS, and followed by incubation with 100 ul blocking agent (10% goat serum in DPBS) for 30 min at room temperature. MF20 primary antibody in 10% goat serum in DPBS was added at 1/60 dilution for 30 min at room temperature and rinsed three times with 100 ul DPBS. IgG2b goat anti mouse secondary antibody (Jackson Immuno-Research) was added at 1:1000 in 10% goat serum in DPBS for exactly 30 min at room temperature then rinsed 3 times with 100 ul DPBS. A final rinse in H2O was performed and cells were covered with two drops of Elvanol and cover gently with cover slip and allowed to dry in the dark for 24-48 hours.

CC1(C)CCC(C)(C)c2cc(-c3cc4cc(C(=O)NO)ccc4[nH]3)ccc21 [Compound 13]
transcriptional activation of RXR / RXRE-promoter [1]: none | fold more potent than compound 17 in HDAC-6 inhibition [2]: at least 50 | fusion of single cells into multinucleated C2Cl2 myotubes [3]: enhances the fusion
